# Test results reported in patent US11945826B2, “Hydroxypyridoxazepines as NRF2 activators” (GLAXOSMITHKLINE INTELLECTUAL PROPERTY DEVELOPMENT LIMITED, priority 2019, dated 2024).
# Test system: Nrf2 (NQO1 activity in BEAS-2B cells)
# Test: BEAS-2B NQO1 MTT Assay
# Type: cell-based
# Settings: Homo sapiens, 48 hours, NQO1 specific activity induction, read-out: EC50
# Description: NAD(P)H:quinone oxidoreductase 1 (NQO1), also called DT diaphorase, is a homodimeric FAD-containing enzyme that catalyzes obligatory NAD(P)H-dependent two-electron reductions of quinones and protects cells against the toxic and neoplastic effects of free radicals and reactive oxygen species arising from one-electron reductions. The transcription of NQO1 is finely regulated by Nrf2, and thus NQO1 activity is a good marker for Nrf2 activation. On day one, frozen BEAS-2B cells (ATCC) were thawed in a water bath, counted, and re-suspended at a concentration of 250,000 cells/mL. Fifty microliters of cells were plated in 384 well black clear-bottomed plates. Plates were incubated at 37° C., 5% CO2 overnight. On day two, plates were centrifuged and 50 nL of compound or controls were added to the cells. Plates were then incubated at 37° C., 5% CO2 for 48 hours. On day four, medium was aspirated from the plate and crude cell lysates were made by adding 13 μL of 1× Cell Signalling Technologies lysis buffer with 1 Complete, Mini, EDTA-free Protease Inhibitor Tablet (Roche) for each 10 mL of lysis buffer. After lysis plates were incubated for 20 minutes at room temperature. Two microliters of lysate were removed for use in Cell Titer Glo assay (Promega) and MTT cocktail was prepared (Prochaska et. al. 1998) for measurement of NQO1 activity. Fifty microliters of MTT cocktail was added to each well, plate was centrifuged, and analyzed on an Envision plate reader (Perkin Elmer) using Absorbance 570 nm label for 30 minutes. Product formation was measured kinetically and the pEC50 of NQO1 specific activity induction was calculated by plotting the change in absorbance (Delta OD/min) versus the log of compound concentration followed by 3-parameter fitting.
# EC50s<1 nM (+++++), EC50s 1 nM-10 nM (++++), EC50s 10 nM-100 nM (+++), EC50s 100 nM-1 μM (++), EC50s 1 μM-10 μM (+).
row,SMILES,EC50 [nM]
1,"Cc1ccc([C@@H](CC(=O)O)c2ccc3c(nnn3C)c2C)cc1CN1Cc2nc(O)ccc2O[C@@H](C(C)C)C1 [Example 2, (R)-3-(1,4-dimethyl-1H-benzo[d][1,2,3]triazol-5-yl)-3-(3-(((S)-7-hydroxy-2-isopropyl-2,3-dihydropyrido[2,3-f][1,4]oxazepin-4(5H)-yl)methyl)-4-methylphenyl)propanoic acid]",100 to 1000
2,"Cc1ccc([C@@H](CC(=O)O)c2ccc3c(nnn3C)c2C)cc1CN1Cc2nc(O)ccc2O[C@H](C(C)C)C1 [Example 3, (R)-3-(1,4-dimethyl-1H-benzo[d][1,2,3]triazol-5-yl)-3-(3-(((R)-7-hydroxy-2-isopropyl-2,3-dihydropyrido[2,3-f][1,4]oxazepin-4(5H)-yl)methyl)-4-methylphenyl)propanoic acid]",1 to 10
3,"Cc1ccc([C@@H](CC(=O)O)c2ccc3c(nnn3C)c2C)cc1CN1Cc2nc(O)ccc2O[C@H](C)C1 [Example 4, (R)-3-(1,4-dimethyl-1H-benzo[d][1,2,3]triazol-5-yl)-3-(3-(((R)-7-hydroxy-2-methyl-2,3-dihydropyrido[2,3-f][1,4]oxazepin-4(5H)-yl)methyl)-4-methylphenyl)propanoic acid]",10 to 100
4,"Cc1ccc([C@@H](CC(=O)O)c2ccc3c(nnn3C)c2C)cc1CN1Cc2nc(O)ccc2OC(C)(C)C1 [Example 5, (R)-3-(1,4-dimethyl-1H-benzo[d][1,2,3]triazol-5-yl)-3-(3-((7-hydroxy-2,2-dimethyl-2,3-dihydropyrido[2,3-f][1,4]oxazepin-4(5H)-yl)methyl)-4-methylphenyl)propanoic acid]",10 to 100
5,"Cc1ccc([C@@H](CC(=O)O)c2ccc3c(nnn3C)c2C)cc1CN1Cc2nc(O)ccc2O[C@H](C(F)(F)F)C1 [Example 6, (R)-3-(1,4-dimethyl-1H-benzo[d][1,2,3]triazol-5-yl)-3-(3-(((S)-7-hydroxy-2-(trifluoromethyl)-2,3-dihydropyrido[2,3-f][1,4]oxazepin-4(5H)-yl)methyl)-4-methylphenyl)propanoic acidacid]",10 to 100
6,"CC[C@H]1CN(Cc2cc([C@@H](CC(=O)O)c3ccc4c(nnn4C)c3C)ccc2C)Cc2nc(O)ccc2O1 [Example 7, (R)-3-(1,4-dimethyl-1H-benzo[d][1,2,3]triazol-5-yl)-3-(3-(((S)-2-ethyl-7-hydroxy-2,3-dihydropyrido[2,3-f][1,4]oxazepin-4(5H)-yl)methyl)-4-methylphenyl)propanoic acid]",100 to 1000
7,"Cc1ccc([C@H](CC(=O)O)c2ccc3c(nnn3C)c2C)cc1CN1Cc2nc(O)ccc2O[C@H](C(C)C)C1 [Example 8, (S)-3-(1,4-dimethyl-1H-benzo[d][1,2,3]triazol-5-yl)-3-(3-(((R)-7-hydroxy-2-isopropyl-2,3-dihydropyrido[2,3-f][1,4]oxazepin-4(5H)-yl)methyl)-4-methylphenyl)propanoic acid]",10 to 100
8,"Cc1ccc([C@H](CC(=O)O)c2ccc3c(nnn3C)c2C)cc1CN1Cc2nc(O)ccc2O[C@@H](C(C)C)C1 [Example 9, (S)-3-(1,4-dimethyl-1H-benzo[d][1,2,3]triazol-5-yl)-3-(3-(((S)-7-hydroxy-2-isopropyl-2,3-dihydropyrido[2,3-f][1,4]oxazepin-4(5H)-yl)methyl)-4-methylphenyl)propanoic acid]",100 to 1000
9,"CC[C@@H]1CN(Cc2cc([C@H](CC(=O)O)c3ccc4c(nnn4C)c3C)ccc2C)Cc2nc(O)ccc2O1 [Example 10, (S)-3-(1,4-dimethyl-1H-benzo[d][1,2,3]triazol-5-yl)-3-(3-(((R)-2-ethyl-7-hydroxy-2,3-dihydropyrido[2,3-f][1,4]oxazepin-4(5H)-yl)methyl)-4-methylphenyl)propanoic acid]",10 to 100
10,"Cc1ccc([C@H](CC(=O)O)c2ccc3c(nnn3C)c2C)cc1CN1Cc2nc(O)ccc2OC(C)(C)C1 [Example 11, (S)-3-(1,4-dimethyl-1H-benzo[d][1,2,3]triazol-5-yl)-3-(3-((7-hydroxy-2,2-dimethyl-2,3-dihydropyrido[2,3-f][1,4]oxazepin-4(5H)-yl)methyl)-4-methylphenyl)propanoic acid]",100 to 1000
11,"CC[C@H]1CN(Cc2cc([C@H](CC(=O)O)c3ccc4c(nnn4C)c3C)ccc2C)Cc2nc(O)ccc2O1 [Example 12, (S)-3-(1,4-dimethyl-1H-benzo[d][1,2,3]triazol-5-yl)-3-(3-(((S)-2-ethyl-7-hydroxy-2,3-dihydropyrido[2,3-f][1,4]oxazepin-4(5H)-yl)methyl)-4-methylphenyl)propanoic acid]",1000 to 10000
12,"CC[C@@H]1CN(Cc2cc([C@@H](c3ccc4c(nnn4C)c3C)C(C)(C)C(=O)O)ccc2C)Cc2nc(O)ccc2O1 [Example 13, (S)-3-(1,4-dimethyl-1H-benzo[d][1,2,3]triazol-5-yl)-3-(3-(((R)-2-ethyl-7-hydroxy-2,3-dihydropyrido[2,3-f][1,4]oxazepin-4(5H)-yl)methyl)-4-methylphenyl)-2,2-dimethyl propanoic acid]",< 1
13,"Cc1ccc([C@@H](c2ccc3c(nnn3C)c2C)C(C)(C)C(=O)O)cc1CN1Cc2nc(O)ccc2O[C@H](C)C1 [Example 14, (S)-3-(1,4-dimethyl-1H-benzo[d][1,2,3]triazol-5-yl)-3-(3-(((R)-7-hydroxy-2-methyl-2,3-dihydropyrido[2,3-f][1,4]oxazepin-4(5H)-yl)methyl)-4-methylphenyl)-2,2-dimethylpropanoic acid]",1 to 10
14,"Cc1ccc([C@@H](c2ccc3c(nnn3C)c2C)C(C)(C)C(=O)O)cc1CN1Cc2nc(O)ccc2O[C@H](C(C)C)C1 [Example 15, (S)-3-(1,4-dimethyl-1H-benzo[d][1,2,3]triazol-5-yl)-3-(3-(((R)-7-hydroxy-2-isopropyl-2,3-dihydropyrido[2,3-f][1,4]oxazepin-4(5H)-yl)methyl)-4-methylphenyl)-2,2-dimethylpropanoic acid]",< 1
15,"Cc1ccc([C@@H](c2ccc3c(nnn3C)c2C)C(C)(C)C(=O)O)cc1CN1Cc2nc(O)ccc2O[C@@H](C(C)C)C1 [Example 16, (S)-3-(1,4-dimethyl-1H-benzo[d][1,2,3]triazol-5-yl)-3-(3-(((S)-7-hydroxy-2-isopropyl-2,3-dihydropyrido[2,3-f][1,4]oxazepin-4(5H)-yl)methyl)-4-methylphenyl)-2,2-dimethylpropanoic acid]",1 to 10
16,"Cc1ccc([C@@H](c2ccc3c(nnn3C)c2C)C(C)(C)C(=O)O)cc1CN1Cc2nc(O)ccc2OC(C)(C)C1 [Example 17, (S)-3-(1,4-dimethyl-1H-benzo[d][1,2,3]triazol-5-yl)-3-(3-((7-hydroxy-2,2-dimethyl-2,3-dihydropyrido[2,3-f][1,4]oxazepin-4(5H)-yl)methyl)-4-methylphenyl)-2,2-dimethylpropanoic acid]",1 to 10
17,"CC[C@H]1CN(Cc2cc([C@@H](c3ccc4c(nnn4C)c3C)C(C)(C)C(=O)O)ccc2C)Cc2nc(O)ccc2O1 [Example 18, (S)-3-(1,4-dimethyl-1H-benzo[d][1,2,3]triazol-5-yl)-3-(3-(((S)-2-ethyl-7-hydroxy-2,3-dihydropyrido[2,3-f][1,4]oxazepin-4(5H)-yl)methyl)-4-methylphenyl)-2,2-dimethylpropanoic acid]",1 to 10
18,"Cc1ccc([C@@H](c2ccc3c(nnn3C)c2C)C(C)(C)C(=O)O)cc1CN1Cc2nc(O)ccc2O[C@H](C(F)(F)F)C1 [Example 19, (S)-3-(1,4-dimethyl-1H-benzo[d][1,2,3]triazol-5-yl)-3-(3-(((S)-7-hydroxy-2-(trifluoromethyl)-2,3-dihydropyrido[2,3-f][1,4]oxazepin-4(5H)-yl)methyl)-4-methylphenyl)-2,2-dimethylpropanoic acid]",< 1
19,"Cc1ccc([C@@H](CC(=O)O)c2ccc3c(nnn3C)c2C)cc1CN1Cc2nc(O)ccc2O[C@@H](C(F)(F)F)C1 [Example 20, (R)-3-(1,4-dimethyl-1H-benzo[d][1,2,3]triazol-5-yl)-3-(3-(((R)-7-hydroxy-2-(trifluoromethyl)-2,3-dihydropyrido[2,3-f][1,4]oxazepin-4(5H)-yl)methyl)-4-methylphenyl)propanoic acid]",1000 to 10000
20,"Cc1ccc([C@@H](c2ccc3c(nnn3C)c2C)C(C)(C)C(=O)O)cc1CN1Cc2nc(O)ccc2O[C@@H](C(F)(F)F)C1 [Example 21, (S)-3-(1,4-dimethyl-1H-benzo[d][1,2,3]triazol-5-yl)-3-(3-(((R)-7-hydroxy-2-(trifluoromethyl)-2,3-dihydropyrido[2,3-f][1,4]oxazepin-4(5H)-yl)methyl)-4-methylphenyl)-2,2-dimethylpropanoic acid]",10 to 100
21,"CC[C@@H]1CN(Cc2cc([C@@H](CC(=O)O)c3ccc4c(nnn4C)c3C)ccc2C)Cc2nc(O)c(F)cc2O1 [Example 22, (R)-3-(1,4-dimethyl-1H-benzo[d][1,2,3]triazol-5-yl)-3-(3-(((R)-2-ethyl-8-fluoro-7-hydroxy-2,3-dihydropyrido[2,3-f][1,4]oxazepin-4(5H)-yl)methyl)-4-methylphenyl)propanoic acid]",1 to 10
